Experimental data as given in US7011834B1, “Immunomodulating dimers” (The Board of Trustees of Leland Stanford Junior University, priority 1987, dated 2006).

Experiments:
[1] = tested on: CD8+CTL line specific for HLA-A2; assay: Cytotoxicity assay: inhibition of lysis by established CTL, 51Cr-labeled JY targets; assay type: cell-based, human; conditions: JY targets; for % Specific Lysis: cell ratio 1:1, CTL line AJY
Description: Cytotoxicity Assay. CTL assays were performed as described using ^51Cr-labeled EBV transformed B cells expressing the appropriate HLA allele as targets [[…] et al., J. Immunol. (1982) 129:2001]. In the present protocol, a CD8+CTL line specific for HLA-A2 was tested in the presence of various peptides for lysis of ^51Cr-labeled JY targets. Peptides were added to a final concentration of 100 μg/ml at the initiation of the 4 h assay. Each determination was the mean of triplicate wells. […] In these determinations, inhibition of cytolysis, as described above, employed the CTL cell line AJY, a long term CD8+CTL line specific for HLA-A2 and the target cell was the B-lymphoblastoid cell line JY (HLA-A2, B7). The cytotoxicity assay was performed as described by Clayberger et al., J. Exp. Med. (1984) 162:1709-1714; and Reiss et al., Proc Natl Acad Sci USA (1980) 77:5432-5436. The peptides were preincubated for 30 min with 1-3×10^3 CTLs before addition of 10^3 51Cr-labeled B-lymphoblastoid target cells. The results are reported for varying concentrations of the peptide with varying ratios of the two cell lines.

[2] = tested on: purified T cells; assay: Proliferation assay: purified T cells stimulated by immobilized anti-CD3, 3H-thymidine incorporation; assay type: cell-based, human
Description: Cells and Cell Culture. PBL were isolated from normal donors by centrifugation over Ficoll-Hypaque. In some cases, T cells were purified from this preparation using the method of Secrist et al. [J. Exp. Med. (1993) 178:2123]. Briefly, cells isolated over Ficoll-Hypaque were incubated for 1 hour in Petri dishes. Nonadherent cells were passed over a nylon wool column and the resulting population was >90% CD3+ by FACS analysis. CD8+CTL lines specific for HLA-A2, B7, B27, B48, or Cw4 were generated and maintained in long-term culture as previously described [Buxton et al., J. Exp. Med. (1992) 175:809; Wesley et al., Hum. Immunol. (1993) 36:149]. Jurkat E6-1 and the T cell receptor negative Jurkat, JRT3-T3.5, were obtained from the American Type Culture Collection (ATCC; Rockville, Md.). Other cell lines used included the EBV transformed B cell lines JY, MS, C1R, and 721.221; K562 and HEL, erythroleukemia cell lines; the T cell tumors Peer, Hut-78 and HSB; the Burkitt's lymphoma cell lines Daudi and SUP B17 [Wright et al., J. Exp. Med. (1989) 169:1557], and the NK-like cell line YT2C2. […]
Proliferation Assay. […] Plates were harvested on a PHD Cell Harvester 24 hours later and [^3H]-thymidine incorporation determined by scintillation counting.
Peptides were evaluated for effects on the proliferation of purified T cells stimulated by immobilized anti-CD3 antibody. […]

[3] = tested on: PBL from normal donors; assay: PBL proliferation with Conagglutinin A, 3H-thymidine incorporation; assay type: cell-based, human; conditions: approximate, purity not established
Description: To measure the effect of D-substitutions on proliferation, PBL from normal donors were cultured at 5×10^5 cells/round bottom microtiter well in RPMI-1640 supplemented with 10% fetal bovine serum and L-glutamine. Cultures were supplemented with Conagglutinin A. Cells were incubated at 37° C. for three days at which point ^3H-thymidine (1 μCi/well) was added. After 24 hours, wells were harvested and ^3H-thymidine incorporation determined by scintillation counter.

[4] = tested on: Lew specific CTL precursors in splenocytes; assay: Limiting dilution assay for CTL precursors in splenocytes after in vivo peptide; design: species or system rat; conditions: for [CTL precursor frequency]^−1: PVG rats, single iv 2 mg, Lew stimulators
Description: The effect of peptides on CTL precursor frequencies in splenocytes was tested as follows. Limiting dilution analysis was carried out essentially as described (Moeller et al. 1993, supra; Skinner and Marbrook. J. Exp. Med. (1976) 143:1562). Briefly, spleens were removed from naive animals or from animals that had received an allograft a minimum of 60 days earlier and then teased into a single cell suspension. Responder cells were plated from 1000 to 40,000 cells per well (24 replicates per concentration) into round bottom microliter wells in RPMI 1640 supplemented with 10% fetal bovine serum (Hyclone, Logan, Utah), 2 mM L-glutamine, 5×10^−5M β-mercaptoethanol, 100 U/ml penicillin, 100 μg/ml streptomycin, 20% supernatant from Concanavalin A activated rat spleen cells, and 50 μM α-methyl mannoside. Then, 5×10^5 irradiated (2000 rads) stimulator cells were added to each well and plates were incubated in a humidified CO2 incubator. After 5 days, aliquots were removed and tested for lysis of ^51Cr-labeled Concanavalin A activated blasts. Aliquots of supernatant were counted in a gamma counter and CTL precursor frequency determined by linear regression (Skinner and Marbrook. 1976, supra). Wells were considered positive if specific release was >10%.
PVG (RT1^c) or ACI […] rats were treated with a single intravenous injection of saline or 2 mg of A2.75-84, B7.75-84, B2702.75-84, or RT1^a.75-84 peptide. Their spleens were removed on different days after peptide treatment, cultured under limiting dilution conditions for 5 days with irradiated (2000R) splenocytes from Lewis rats; i.e., Lew (RT1^1) stimulator cells, and assayed for lysis of ^51Cr-labeled Lew blasts. CTL precursor frequency was determined by linear regression analysis.

[5] = tested on: CD8+CTL line specific for HLA-A2; assay: Cytotoxicity assay: inhibition of lysis by established CTL, 51Cr-labeled JY targets; assay type: cell-based, human; conditions: cell ratio 10:1, CTL line AJY

In the case of RENLRIALRY [B2702.75–84], the “inhibition of lysis by established CTL” value ([1]; HLA-A2 specific CD8+CTL, peptides 100 μg/ml, 4 h assay) is reported as “inhibited lysis”, the “% Specific Lysis” value ([1]; peptide 25 μg/ml) is reported as 23.9% and the “% Specific Lysis” value ([1]; peptide 100 μg/ml) is reported as 18.6%. The “% Specific Lysis” value ([1]; peptide 200 μg/ml) was 16.4%, the “inhibition of proliferation of purified T cells stimulated by immobilized anti-CD3 antibody” value [2] was “do not” and the “CPM ± SD (3H-thymidine incorporation)” value ([3]; peptide 50 μg/ml, Con A 1 mg/ml) was 5,806 ± 721 CPM. The “CPM ± SD (3H-thymidine incorporation)” value ([3]; peptide 50 μg/ml, Con A 3 mg/ml) was 32,618 ± 1582 CPM, the “CPM ± SD (3H-thymidine incorporation)” value ([3]; peptide 200 μg/ml, Con A 1 mg/ml) was 2,322 ± 147 CPM and the “CPM ± SD (3H-thymidine incorporation)” value ([3]; peptide 200 μg/ml, Con A 3 mg/ml) was 20,905 ± 2047 CPM. The “[CTL precursor frequency]^−1” value ([4]; 0 days after peptide injection) was 54,631, the “[CTL precursor frequency]^−1” value ([4]; 1 day after peptide injection) was 54,631 and the “[CTL precursor frequency]^−1” value ([4]; 7 days after peptide injection) was 465,572. For the same sequence, the “[CTL precursor frequency]^−1” value ([4]; 10 days after peptide injection) was 468,071, the “precursor frequency of Lew specific cells in splenocytes” value ([4]; treated on the day of splenectomy or 24 hours earlier, compared with approximately 1 in 55,000) was “The same frequency” and the “% Specific Lysis” value ([5]; peptide 25 μg/ml) was 60.9%. The “% Specific Lysis” value ([5]; peptide 100 μg/ml) was 43.7% and the “% Specific Lysis” value ([5]; peptide 200 μg/ml) was 33.1%.
